Patent US12582616B2, “Molecular targets for modulation of dissociative and associative states” (The Board of Trustees of the Leland Stanford Junior …, priority 2020, dated 2026)
Entries after “also recorded” stand apart in the source; their conditions may differ.

How the values were obtained:
mice [1] = assay: Hot plate test; details: for dissociation-like behavior (sensory-detection vs affective responses), hot plate: other drug classes
Experimental: Hot Plate Test: Mice were placed on the hot plate (Bioseb), which was set to 55° C. and surrounded by a clear circular perimeter. Mouse activity was recorded using two cameras from different angles. The experiment ended when the mouse jumped to escape or 90 seconds had elapsed. Care was taken to clean and dry the hot plate apparatus between animals. For optogenetic experiments, mice were connected to patch cords and then returned to a holding cage. Illumination began 30 seconds before mice were placed on the hot plate.

mice [2] = assay: Open field test; assay type: in vivo, mouse; details: 5 min session, compared with saline
Description: Open Field Test: Mice were placed in an evenly illuminated 50 cm×50 cm open field test box. Mouse position was captured using a webcam and Viewer software (Biobserve).

[3] = test system: retrosplenial cortex (RSP); assay: Widefield imaging of cortical activity in GCaMP6s mice; details: i.p. injection, ketamine 50 mg/kg
Description: We recorded multiregional neuronal activity by leveraging widefield microscopy, a cleared skull preparation, and atlas registration in GCaMP6s-expressing mice (FIGS. 1A-1C)^6,8,15.
As described^8, mice were anesthetized with isoflurane, the scalp was removed, the skull cleaned and dried, and a custom head-plate was cemented to contacts over the cerebellum and in front of the olfactory bulb. The skull was then covered in a thin layer of cyanoacrylate glue (Apollo 2000, Cyberbond), clear dental acrylic (Ortho-Jet, Lang Dental), and clear nail polish (Electron Microscopy Services). […] (0.1 mg/kg) was injected subcutaneously for pain management. […] Imaging was performed on a custom-built fluorescence microscope designed for high light collection efficiency and large field of view. […] Alternating 410 nm and 488 nm illumination for non-Ca^2+ dependent artifact removal was controlled using a microcontroller (Arduino) slaved to the frame output trigger of the camera.
Analysis was performed using custom MATLAB (MathWorks) scripts. Widefield imaging videos were registered to a 2D top-projection atlas generated from the annotated Allen Brain Atlas volume, version CCFv2, in MATLAB (MathWorks), using an affine transformation computed from four manually selected control points. Each video was DF/F normalized, using the median for each pixel over the entire time series as F. The 410 nm channel was then temporally smoothed using a moving average (width=400 ms). The smoothed 410 nm DF/F signal for each pixel was regressed onto the 488 nm DF/F signal for the corresponding pixel, and the regression coefficients were used to scale the 410 nm channel to the 488 nm channel. This scaled 410 nm DF/F signal was then subtracted from the 488 nm DF/F signal to produce a normalized signal for each pixel. For quantification, activity traces were extracted from points centered in five cortical regions (visual, somatosensory, parietal, motor, retrosplenial) on the left hemisphere of the brain. The video data was Gaussian smoothed spatially (radius=2 pixels).
Each trace (corresponding to either a fiber photometry signal, a cellular two-photon signal, a widefield regional centroid, a widefield pixel, an sEEG trace, or a smoothed spike rate Neuropixels trace) was z-scored, and the power spectral density (PSD) was then estimated using Welch's method (pwelch( ) in Matlab), with a window size of 10*fs (15*fs for human sEEG) where fs is the sampling rate of the signal. The average band power within a specified band (i.e. 1-3 Hz) was then computed by integrating the PSD estimate (bandpower in Matlab). […] Unless otherwise indicated, the PSD was computed across the time window from minutes 10 to 11 post-injection.

mice [4] = assay: Tail suspension test; assay type: in vivo, mouse; details: PCP 5 mg/kg
Experimental: Tail Suspension Test: Mouse activity was recorded using a 60 Hz web camera. Struggling activity was quantified for minutes 2-10. […] Illumination began 30 seconds before tails were secured with tape and suspended from the beam. Mice were excluded if they climbed on their own tails.

| Molecule | responsivity to salient stimuli (time-to-jump, rearing/socialization) (mice [1]; LSD 0.3 mg/kg) | dissociation-like behavior (sensory-detection vs affective responses), hot plate (mice [1]) | open-field locomotion velocity (mice [2]) | 1-3 Hz oscillation localized to retrosplenial cortex (RSP), widefield imaging [3] | longer-timescale escape and social behaviors (mice [4]) |
| --- | --- | --- | --- | --- | --- |
| (+)-Lysergic acid diethylamide (+)-tartrate (2:1) [LSD] | tended to increase responsivity to salient stimuli | disrupted neither sensory-detection nor affective responses | reducing locomotion in the stimulus-poor open-field; also recorded: decreased velocity | did not elicit oscillation | – |
| c1ccc(C2(N3CCCCC3)CCCCC2)cc1 [PCP, phencyclidine] | – | recapitulated ketamine's behavioral disconnection between sensory-detection and affective responses | locomotion velocity was unchanged | induced the RSP-localized oscillation | inhibited longer-timescale escape and social behaviors |
| CC(C)c1cccc(C(C)C)c1O [propofol] | – | – | – | elicited waves of cortical activity without RSP restriction | – |
| CN1C(=O)CN=C(c2ccccc2)c2cc(Cl)ccc21 [diazepam] | – | did not recapitulate dissociative-like behavior | decreased velocity | Neither the GABAergic sedative diazepam nor the centrally-acting opioid-analgesic buprenorphine elicited the rhythm | – |
| C[C@]12N[C@H](Cc3ccccc31)c1ccccc12 [MK-801] | – | – | – | induced the RSP-localized oscillation | – |
| CC12CC3CC(C)(C1)CC(N)(C3)C2 [memantine] | – | – | – | did not elicit oscillation | – |
| Cc1cccc([C@H](C)c2cnc[nH]2)c1C [dexmedetomidine] | – | – | – | elicited waves of cortical activity without RSP restriction | – |
